Measurements as given in ChEMBL document CHEMBL1154957, “Preparation and in vitro screening of symmetrical bispyridinium cholinesterase inhibitors bearing different connecting linkage-initial study for Myasthenia gravis implications” (Bioorg Med Chem Lett, 2010).
Activity calls are given as the source filed them. No cut-off for these calls is given here.

What was measured:
[1] = molecular target: T1, Acetylcholinesterase (Homo sapiens, UniProt P22303); experiment: Inhibition of human erythrocyte AChE after 5 mins by Ellman's method
T1 sequence (P22303 whole entry): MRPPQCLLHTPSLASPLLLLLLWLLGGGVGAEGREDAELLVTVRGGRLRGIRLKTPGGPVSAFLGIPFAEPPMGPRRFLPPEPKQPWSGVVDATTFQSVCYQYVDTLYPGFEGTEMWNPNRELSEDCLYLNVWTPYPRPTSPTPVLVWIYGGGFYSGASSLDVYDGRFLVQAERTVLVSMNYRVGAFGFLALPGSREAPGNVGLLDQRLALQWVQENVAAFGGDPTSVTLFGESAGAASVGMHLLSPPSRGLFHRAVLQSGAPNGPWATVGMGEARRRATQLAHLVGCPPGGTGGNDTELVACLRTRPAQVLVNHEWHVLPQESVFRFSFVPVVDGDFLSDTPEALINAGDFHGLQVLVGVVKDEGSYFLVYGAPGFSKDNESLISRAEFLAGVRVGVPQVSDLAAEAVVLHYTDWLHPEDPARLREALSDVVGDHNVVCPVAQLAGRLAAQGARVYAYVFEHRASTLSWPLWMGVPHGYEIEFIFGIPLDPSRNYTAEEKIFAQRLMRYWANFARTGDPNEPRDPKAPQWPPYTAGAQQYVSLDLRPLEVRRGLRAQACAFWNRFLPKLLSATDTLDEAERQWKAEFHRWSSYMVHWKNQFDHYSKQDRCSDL

[2] = molecular target: Cholinesterase (Homo sapiens, UniProt P06276); experiment: Inhibition of human plasma BChE after 5 mins by Ellman's method; assay type: cell-free
Sequence of Cholinesterase (P06276 whole entry): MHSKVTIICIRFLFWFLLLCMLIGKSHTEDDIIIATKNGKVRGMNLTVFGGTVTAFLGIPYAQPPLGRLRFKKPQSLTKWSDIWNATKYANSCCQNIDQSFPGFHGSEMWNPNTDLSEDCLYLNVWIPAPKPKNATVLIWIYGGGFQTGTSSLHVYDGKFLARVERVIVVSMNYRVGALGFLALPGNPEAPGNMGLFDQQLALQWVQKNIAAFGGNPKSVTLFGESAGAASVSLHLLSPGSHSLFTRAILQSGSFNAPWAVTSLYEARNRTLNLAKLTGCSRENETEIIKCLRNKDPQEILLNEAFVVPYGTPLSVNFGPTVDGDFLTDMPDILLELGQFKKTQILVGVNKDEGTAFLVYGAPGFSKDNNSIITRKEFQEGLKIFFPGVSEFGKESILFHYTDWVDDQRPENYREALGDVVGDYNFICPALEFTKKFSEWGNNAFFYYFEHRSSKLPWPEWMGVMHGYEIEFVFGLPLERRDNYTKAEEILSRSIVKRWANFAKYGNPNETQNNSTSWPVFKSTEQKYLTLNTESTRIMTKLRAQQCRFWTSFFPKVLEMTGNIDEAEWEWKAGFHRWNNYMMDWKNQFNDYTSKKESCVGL

[3] = molecular target: T1, Acetylcholinesterase; experiment: Inhibition of human erythrocyte AChE after 5 mins by noncompetitive Lineweaver-Burke plot analysis for enzyme-inhibitor complex
[4] = molecular target: T1, Acetylcholinesterase; experiment: Inhibition of human erythrocyte AChE after 5 mins by noncompetitive Lineweaver-Burke plot analysis
[5] = molecular target: T1, Acetylcholinesterase; experiment: Inhibition of human erythrocyte AChE at 0.0000001 mM to 1 mM after 5 mins by Ellman's method

SMILES | IC50 [1] [µM] | IC50 [2] [µM] | Ki [3] [µM] | Ki [4] [µM] | inhibition [5]
c1cc[n+](Cc2ccc3ccc(C[n+]4ccccc4)cc3c2)cc1 | 0.2 | 0.8 | 0.14 | 0.14 | –
C(=C/C[n+]1ccccc1)/C[n+]1ccccc1 | 1990 | 1270 | – | – | –
c1cc[n+](CCCCCC[n+]2ccccc2)cc1 | 63 | 130 | – | – | –
c1cc[n+](CCCCCCCC[n+]2ccccc2)cc1 | 31 | 29 | – | – | –
c1cc[n+](CCCCCCCCCCC[n+]2ccccc2)cc1 | 0.7 | 7 | 0.02 | 0.03 | –
c1cc[n+](CC[n+]2ccccc2)cc1 | – | – | – | – | inactive
c1cc[n+](CCCCCCCCC[n+]2ccccc2)cc1 | 2 | 6 | – | – | –
c1cc[n+](C[n+]2ccccc2)cc1 | – | – | – | – | inactive
c1cc[n+](Cc2ccccc2C[n+]2ccccc2)cc1 | 636 | 345 | – | – | –
c1cc[n+](CCCCCCCCCCCC[n+]2ccccc2)cc1 | – | – | – | – | inactive
c1cc[n+](Cc2cccc(C[n+]3ccccc3)c2)cc1 | 2360 | 1380 | – | – | –
c1cc[n+](COC[n+]2ccccc2)cc1 | 1770 | 583 | – | – | –
c1cc[n+](CCCCCCC[n+]2ccccc2)cc1 | 241 | 78 | – | – | –
C(=C\C[n+]1ccccc1)/C[n+]1ccccc1 | 2290 | 541 | – | – | –
c1cc[n+](CCCC[n+]2ccccc2)cc1 | 505 | 9800 | – | – | –
c1cc[n+](CCC[n+]2ccccc2)cc1 | – | – | – | – | inactive
c1cc[n+](Cc2ccc(C[n+]3ccccc3)cc2)cc1 | 1540 | 529 | – | – | –
c1cc[n+](CCOCC[n+]2ccccc2)cc1 | 2010 | 2360 | – | – | –
CN(C)C(=O)Oc1cccc([N+](C)(C)C)c1 [NEOSTIGMINE BROMIDE] | – | 0.8 | – | – | –
c1cc[n+](CCCCC[n+]2ccccc2)cc1 | 1270 | 120 | – | – | –
